Results taken from US20240294498A1, “FACTOR XIIA INHIBITORS” (Lunac Therapeutics Ltd, priority 2021, published 2024).

Experiments:
Assay type in all cases: biochemical
FXIIa = target: T1, FXIIa (Homo sapiens, UniProt P00748); assay: Determination of Factor XIIa inhibition (chromogenic substrate S-2302); details: human FXIIa alpha, Ki category
T1 construct: FXIIa alpha
T1 sequence (P00748 373-615 limits assumed): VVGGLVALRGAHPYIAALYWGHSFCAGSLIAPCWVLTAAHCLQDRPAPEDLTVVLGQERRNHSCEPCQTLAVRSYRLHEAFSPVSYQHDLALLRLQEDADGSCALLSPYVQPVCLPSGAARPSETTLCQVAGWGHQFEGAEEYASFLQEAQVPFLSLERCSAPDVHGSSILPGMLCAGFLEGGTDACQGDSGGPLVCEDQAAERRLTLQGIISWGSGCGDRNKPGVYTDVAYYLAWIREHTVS
T1 sequence (P00748 20-372 partner limits assumed): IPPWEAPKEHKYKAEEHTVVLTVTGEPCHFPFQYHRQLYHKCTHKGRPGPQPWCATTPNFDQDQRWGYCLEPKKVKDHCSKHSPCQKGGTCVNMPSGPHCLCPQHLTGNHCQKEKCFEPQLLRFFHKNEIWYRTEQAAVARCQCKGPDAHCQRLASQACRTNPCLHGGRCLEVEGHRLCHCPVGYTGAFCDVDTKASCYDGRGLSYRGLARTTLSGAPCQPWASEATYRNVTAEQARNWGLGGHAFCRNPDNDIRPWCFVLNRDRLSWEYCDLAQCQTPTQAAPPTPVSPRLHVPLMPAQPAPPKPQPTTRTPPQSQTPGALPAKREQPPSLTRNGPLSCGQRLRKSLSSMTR
Experimental: (§1) The activities of the compounds of the invention have been determined in vitro using the following assays protocols for the screening of activity of FXIIa and other proteases. Each of these assays were performed in a purified system employing the use of chromogenic assays in microplate plate wells. Chromogenic peptide substrates mimicking natural protein substrates are attached via an amide bond to a chromogenic group. Paranitroaniline (pNA) is released from the peptide following catalyses by the proteolytic enzyme; the absorbance increases and can be monitored at 405 nm.
(§2) All compounds were dissolved in 100% (v/v) DMSO to a stock concentration of 10 mM, the highest concentration of compound used in each assay is 500 μM. The final concentrations of DMSO were 5% (v/v) in 50 mM Tris 137 mM NaCl pH 7.4. Where no test compound was added a final concentration of 5% DMSO was employed.
Factor XIIa activity was measured using a chromogenic substrate S-2302 (Chromogenix). Various concentrations of compound were incubated with 10 nM of FXIIa and incubated at 37° C. for 10 minutes in 50 mM Tris, 137 mM NaCl, pH 7.4, prior to the addition of the chromogenic substrate S-2302 at a concentration equal the to the experimentally derived KM. Kinetic readings at 405 nm were monitored every 12 secs for a total duration of 3 hours at 37° C. Gradients of initial rates were determined and employed to calculate IC50 values.
The activity of the compounds of the invention has been categorised based on the Ki values, the categories being “†”, “*”, “**” and “***”. […] The category “**” refers to compounds with a Ki value of 0.2 μM to 0.8 μM.
(§3) Ki═IC50/(1+[Substrate]/Km)
(§4) Where [Substrate] denotes the concentration of substrate used in the assay and Km is the determined value of each enzyme with its own substrate.

FXa = FXa (Homo sapiens, UniProt P00742); assay: Determination of selectivity: FXa inhibition (chromogenic substrate S2765); details: fold selectivity for FXIIa over FXa (human); category
Sequence of FXa (P00742 235-488 limits assumed): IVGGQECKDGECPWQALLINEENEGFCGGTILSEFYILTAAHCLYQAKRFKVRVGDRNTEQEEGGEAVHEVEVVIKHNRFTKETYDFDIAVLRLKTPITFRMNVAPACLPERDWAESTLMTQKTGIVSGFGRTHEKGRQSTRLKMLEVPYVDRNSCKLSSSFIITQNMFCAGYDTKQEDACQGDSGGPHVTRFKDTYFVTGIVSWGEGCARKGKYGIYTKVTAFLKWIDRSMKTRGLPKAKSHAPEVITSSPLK
Sequence of FXa (P00742 41-179 partner limits assumed): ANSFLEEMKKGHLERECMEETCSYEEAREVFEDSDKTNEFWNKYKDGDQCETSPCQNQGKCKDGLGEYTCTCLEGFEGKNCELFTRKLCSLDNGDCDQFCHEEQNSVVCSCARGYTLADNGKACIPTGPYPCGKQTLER
Experimental: as §1, §2
(§5) To determine selectivity of test compounds, these test compounds were assayed for inhibitory activity against other serine proteases including FXa and thrombin. Essentially compounds at increasing concentrations were incubated with each enzyme: FXa (5 nM) and thrombin (5 nM), for 10 mins at 37° C. followed by the appropriate chromogenic substrate, S2765 (Chromogenix) and GPR (Bachem) respectively in 50 mM Tris, 137 mM NaCl, pH 7.4. Substrates were used at a concentration equal to the appropriate experimentally derived KM. Kinetic readings at 405 nm were monitored every 12 secs for a total duration of 3 hours at 37° C. Gradients of initial rates were determined and employed to calculate IC50 values. Values of IC50 were converted to Ki values based on the formula:
as §3, §4
The fold selectivity for FXIIa over FXa for the compounds of the invention has been categorised based on the fold selectivity values, the categories being “o”, “oo” and “ooo”. The category “o” refers to fold selectivity values less than 10 (e.g. a fold selectivity value of less than 10 and greater than 1). The category “oo” refers to a fold selectivity value of 10 to 100. The category “ooo” refers to fold selectivity values greater than 100.

thrombin = target: T2, thrombin (Homo sapiens, UniProt P00734); assay: Determination of selectivity: thrombin inhibition (chromogenic substrate GPR); details: fold selectivity for FXIIa over thrombin (human); category
T2 construct: FXa (5 nM) and thrombin (5 nM)
Experimental: as §1, §2, §5, §3, §4
The fold selectivity for FXIIa over thrombin for the compounds of the invention has been categorised based on the fold selectivity values, the categories being “+”, “++” and “+++”. The category “+” refers to fold selectivity values less than 10 (e.g. a fold selectivity value of less than 10 and greater than 1). The category “++” refers to a fold selectivity value of 10 to 100. The category “+++” refers to fold selectivity values greater than 100.

Ki (FXIIa) [nM]	FXa (human)/FXIIa alpha (human) (FXa)	Compound	Thrombin (human)/FXIIa alpha (human) (thrombin)
200 to 800	∘∘∘	Cc1ccc2c(c1)CCN2C1C[C@@H](C(=O)NCc2ccc3c(cnn3C)c2)N(C(=O)[C@@H]2NCCC[C@@H]2C(=O)N2CCCC2)C1 (single isomer, unassigned) [Example M05838]	+++ (fold selectivity values greater than 100)
200 to 800	∘∘∘	Cc1ccc2c(c1)CCN2C1C[C@@H](C(=O)NCc2ccc3c(cnn3C)c2)N(C(=O)[C@@H]2NCCC[C@@H]2C(=O)N2CCCC2)C1 (single isomer, unassigned) [Example M05839]	+++ (fold selectivity values greater than 100)
< 200	∘∘∘	Cc1ccc(C[C@@H]2C[C@@H](C(=O)NCc3ccc4c(cnn4C)c3)N(C(=O)[C@@H]3NCCC[C@@H]3C(=O)N(C)CCN(C)C)C2)cc1 (single isomer, unassigned) [Example M05902]	+++ (fold selectivity values greater than 100)
200 to 800	∘∘∘	Cn1nnc2cc(CNC(=O)[C@@H]3C[C@@H](CC4CCC5(CC4)CC5)CN3C(=O)[C@@H]3NCCC[C@@H]3C(=O)N3CCCC3)ccc21 [Compound M06003]	+++ (fold selectivity values greater than 100)
< 200	∘∘∘	COc1ccc(C[C@@H]2C[C@@H](C(=O)NCc3cc4cnccc4[nH]3)N(C(=O)[C@@H]3NCCC[C@@H]3C(=O)N3CCCC3)C2)cc1 [Example M00466, (2S,4R)-N-((1H-pyrrolo[3,2-c]pyridin-2-yl)methyl)-4-(4-mthoxybenzyl)-1-((2R,3S)-3-(pyrrolidine-1-carbonyl)piperidine-2-carbonyl)pyrrolidine-2-carboxamide]	+++ (fold selectivity values greater than 100)
< 200	∘∘	COc1ccc(C[C@@H]2C[C@@H](C(=O)NCc3cc4cnccc4[nH]3)N(C(=O)[C@@H]3NCCC[C@@H]3C(=O)N3CCCC3(C)C)C2)cc1 [Example M00467]	+ (fold selectivity values less than 10 (e.g. a fold selectivity value of less than 10 and greater than 1))
< 200	∘∘∘	COc1ccc(C[C@@H]2C[C@@H](C(=O)NCc3ccc4c(c3)nnn4C)N(C(=O)[C@@H]3NCCC[C@@H]3C(=O)N3CCCC3)C2)cc1 [Example M04490]	+++ (fold selectivity values greater than 100)
< 200	∘∘∘	Cc1ccc(C[C@@H]2C[C@@H](C(=O)NCc3ccc4c(cnn4C)c3)N(C(=O)[C@@H]3NCCC[C@@H]3C(=O)N3CCCC3)C2)cc1 [Example M05675, (2S,4R)-N-((1-methyl-1H-indazol-5-yl)methyl)-4-(4-methylbenzyl)-1-((2R,3S)-3-(pyrrolidine-1-carbonyl)piperidine-2-carbonyl)pyrrolidine-2-carboxamide]	+++ (fold selectivity values greater than 100)
200 to 800	∘∘∘	Cc1ccc(C[C@@H]2C[C@@H](C(=O)NCc3cc4cncc(F)c4[nH]3)N(C(=O)[C@@H]3NCCC[C@@H]3C(=O)N3CCCC3)C2)cc1 [Example M05712, (2S,4R)-N-((7-fluoro-1H-pyrrolo[3,2-c]pyridin-2-yl)methyl)-4-(4-methylbenzyl)-1-((2R,3S)-3-(pyrrolidine-1-carbonyl)piperidine-2-carbonyl)pyrrolidine-2-carboxamide]	+++ (fold selectivity values greater than 100)
800 to 5000	∘∘∘	Cn1ncc2cc(CNC(=O)[C@@H]3C[C@@H](Cc4ccn(C5CC5)n4)CN3C(=O)[C@@H]3NCCC[C@@H]3C(=O)N3CCCC3)ccc21 [Example M05983, (2S,4S)-4-((1-cyclopropyl-1H-pyrazol-3-yl)methyl)-N-((1-methyl-1H-indazol-5-yl)methyl)-1-((2R,3S)-3-(pyrrolidine-1-carbonyl)piperidine-2-carbonyl)pyrrolidine-2-carboxamide]	
800 to 5000		Cc1ccc(C[C@@H]2C[C@@H](C(=O)NCc3ccn4c(C(F)F)nnc4c3)N(C(=O)[C@@H]3NCCC[C@@H]3C(=O)N3CCCC3)C2)cc1 [Example M05985, (2S,4R)-N-[[3-(difluoromethyl)-[1,2,4]triazolo[4,3-a]pyridin-7-yl]methyl]-4-(p-tolylmethyl)-1-[(2R,3S)-3-(pyrrolidine-1-carbonyl)piperidine-2-carbonyl]pyrrolidine-2-carboxamide]	
800 to 5000	∘∘∘	Cn1nnc2cc(CNC(=O)[C@@H]3C[C@@H](Cc4ccc(C5(F)CC5)cc4)CN3C(=O)[C@@H]3NCCC[C@@H]3C(=O)N3CCCC3)ccc21 [Example M06068, (2S,4R)-4-[[4-(1-fluorocyclopropyl)phenyl]methyl]-N-[(1-methylbenzotriazol-5-yl)methyl]-1-[(2R,3S)-3-(pyrrolidine-1-carbonyl)piperidine-2-carbonyl]pyrrolidine-2-carboxamide]	
200 to 800	∘∘∘	Cn1nnc2cc(CNC(=O)[C@@H]3C[C@@H](Cc4ccc(C5CC5)nc4)CN3C(=O)[C@@H]3NCCC[C@@H]3C(=O)N3CCC[C@@H]3C(F)(F)F)ccc21 [Example M06070, (2S,4R)-4-[(6-cyclopropyl-3-pyridyl)methyl]-N-[(1-methylbenzotriazol-5-yl)methyl]-1-[(2R,3S)-3-[(2R)-2-(trifluoromethyl)pyrrolidine-1-carbonyl]piperidine-2-carbonyl]pyrrolidine-2-carboxamide]	
800 to 5000		Cc1ccc(C[C@@H]2C[C@@H](C(=O)NCCCc3cnn(C)c3)N(C(=O)[C@@H]3NCCC[C@@H]3C(=O)N3CCC[C@@H]3C(F)(F)F)C2)cc1 [Example M06077]	

Compound	Ki (FXIIa) [nM]	FXa (human)/FXIIa alpha (human) (FXa)	Thrombin (human)/FXIIa alpha (human) (thrombin)
Cc1ccc(C=C2C[C@@H](C(=O)NCc3ccc4c(cnn4C)c3)N(C(=O)[C@@H]3NCCC[C@@H]3C(=O)N3CCCC3)C2)cc1 (single isomer, unassigned) [Example M05843]	200 to 800	∘∘∘	+++ (fold selectivity values greater than 100)
Cc1ccc(C=C2C[C@@H](C(=O)NCc3ccc4c(cnn4C)c3)N(C(=O)[C@@H]3NCCC[C@@H]3C(=O)N3CCCC3)C2)cc1 (single isomer, unassigned) [Example M05844]	800 to 5000	∘∘	++ (a fold selectivity value of 10 to 100)
